Patent US20220401585A1, “A UROKINASE PLASMINOGEN ACTIVATOR RECEPTOR-TARGETING PEPTIDE” (RIGSHOSPITALET, priority 2019, published 2022)
Primed or numbered codes have the meaning given here. [ ]: non-standard residue; d: D form. Cha = N[C@@H](CC1CCCCC1)C(=O)O; IRDye800CW′ = not defined here; AEEA = NCCOCCOCC(=O)O

Experiments:
[1] = Photostability under continuous laser exposure; type: physicochemical
Procedure: The photostability was evaluated by a factor 2 dilution series with four samples from 0.23-1.8 nM IRDye800-AE344 in 100 μL phosphate buffered saline (PBS) placed in a black 96-well plate. The well was placed in a black box with the Fluobeam mounted in the top at a distance of 23 cm from the well plate. Image acquisition was performed at 0 min, 10 min, 15 min, 20 min, 0.5 h, 1 h, 2 h, 3 h, 6 h, 10 h, 15 h, 24 h. Each dilution sample was normalized to time point 0 and the data from all four samples were pooled.

[2] = target: T1, uPAR (Homo sapiens, UniProt Q03405); experiment: In vivo binding specificity (competitive blocking, scrambled probe); set-up: endogenous in cells; species or system mice; conditions: 3 nmol, 1 h; for signal intensity compared to the active probe: orthotopic GBM
Procedure: The target specificity to uPAR was evaluated by two different methods: competitive blocking with the uPAR targeting peptide AE120 ((DChaFsrYLWSG)2-βAK) and IRDye800 conjugated to a scrambled peptide, AE354 (IRDye800CW-Glu-Glu-NH—CH2—CH2—O—CH2—CH2—O—CH2—CO—NH—CH2—CH2—O—CH2—CH2—O—CH2—CO-Asp-Cha-Glu-(D)Ser-(D)Arg-Tyr-Leu-Glu-Ser-OH) with similar peptide length as the active peptide. The competitive blocking dose of 1.4-2.8 mg AE120 was injected intraperitoneally 15-30 min prior to intravenous injection of 3 nmol IRDye800CW-AE344 and imaged at 1 h (n=5). The scrambled peptide was administered at 3 nmol and the animals were imaged after 1 h (n=4).
(§1) Images were analyzed and processed in ImageJ 1.52a, NIH, USA. Signal measurements were performed on the raw images generated by the Fluoptics system. Tumor signal was measured as a mean fluorescence intensity of the whole tumor and background signal was measured as the mean of a representative area with no tumor on the contralateral hemisphere. Presented pictures are contrast enhanced in ImageJ with the Contrast Enhancement (Saturated pixels: 0.3%).
Target sequence in this assay (Q03405 23-305): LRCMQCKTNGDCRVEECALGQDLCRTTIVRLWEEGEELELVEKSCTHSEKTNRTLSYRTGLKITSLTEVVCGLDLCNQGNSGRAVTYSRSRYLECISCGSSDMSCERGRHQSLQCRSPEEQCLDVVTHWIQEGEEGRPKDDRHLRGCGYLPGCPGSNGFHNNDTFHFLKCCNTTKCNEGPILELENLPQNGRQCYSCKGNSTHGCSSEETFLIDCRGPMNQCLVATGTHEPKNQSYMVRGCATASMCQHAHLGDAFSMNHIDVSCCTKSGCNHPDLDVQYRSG

[3] = tested on: orthotopic GBM (U-87 MG-luc2 xenograft); experiment: NIR fluorescence imaging of orthotopic GBM (dynamic imaging, TBR and MFI); type: in vivo, mice
Procedure: All experimental procedures in animals were carried out in accordance with the approval by The Animal Experiments Inspectorate, Denmark. 7-10-week-old female nude mice (strain: Rj:NMRI-Foxn1nu/nu, JANVIER LABS, France) were orthotopically xenografted with U-87 MG-luc2 cells. Prior to any surgical procedure, the animals were anesthetized with Hypnorm (0.315 mg/ml fentanyl, 10 mg/ml fluanisone)+Midazolam (5 mg/ml)+sterile water in the ratio 1:1:2 by subcutaneous injection of 0.01 ml/g body weight of the solution.
The orthotopic GBM tumor model was established by inoculation of 500.000 cells in 10 μL ice cold PBS in the right hemisphere (1.5 mm lateral and 0.5 mm posterior to the bregma at 2 mm depth) using a stereotaxic frame (KOPF INSTRUMENTS, Tujunga, Calif., USA) with the automated microinjection pump UMP3 (WPI, Sarasota, Fla., USA). The cells were injected over 5 min with the syringe kept in place for further 3 min before retraction. Tumor growth was subsequently monitored on MRI with the BioSpec 7T (Bruker, Billerica, Mass., USA) with axial and coronal T2-weighted sequences. When the tumor size reached 2-17 mm^3, the animals were included in the fluorescence imaging protocol.
All image acquisition was performed with the Fluobeam system with (Fluosoft version: 2.2.1) (Fluoptics, Grenoble, France). To characterize the in vivo biodistribution and tumor imaging properties, IRDye800-AE344 was administered through tail vein injection into all the GBM bearing mice (n=35) at four different doses: 1 nmol, 3 nmol, 6 nmol, and 12 nmol. Two mice were sacrificed for each time point and the brain was removed and cross sectioned through the tumor for imaging. […] Accordingly, image acquisition was performed at following time points after injection:
1 nmol: 0.5 h, 1 h, and 2 h
3 nmol: 1 h, 2 h, 3 h, and 5 h
6 nmol: 1 h, 3 h, 6 h, and 12 h
as §1
Pathological assessment was used to evaluate the colocalization of the fluorescence signal and cancer cells (sens+spec). The cross sectioned brain specimens from the fluorescence imaging were either paraffin embedded for H&E and IHC staining, or cryostat sectioned for fluorescence microscopy. […]
Cryostat sectioning was performed by fixation of the specimen in Tissue-Tek O.C.T. on dry ice. The fixed tissue was sliced axially and mounted on slides for immediate fluorescence imaging.

[4] = tested on: orthotopic GBM; experiment: Fluorescence-guided resection; type: in vivo, mouse; conditions: 6 nmol at 3 h, EleVision IR system
Procedure: Preoperatively, the tumor was visible on WL and NIR images (FIG. 15 upper panel). The surgeon performed the resection only assisted by WL until the surgeon considered all tumor tissues was removed. […] A video of fluorescence-guided surgery is also available in the online supplementary materials.
As should be understood from above, in FIG. 15 there is shown fluorescence-guided surgery (6 nmol IRDye800CW-AE344 at 3 h) performed with the EleVision™ IR system. Upper panel: Images were acquired prior to surgery. Middle panel: Pictures were acquired following surgery in white light and clearly visualizes remaining tumor tissue. The signal is more intense compared to upper panel and is due to the fact that the remaining tumor is now more exposed.

[5] = Acute toxicity, liver and kidney histology; set-up: species or system mice; conditions: mouse, in vivo
Description: Liver and kidneys: Tissue was formalin fixed and paraffin embedded. Sections of 2-4 um thick were cut and a routine staining panel applied including: H&E, modified sirius, PAS and Masson trichome for both and additional PAS with silver for kidneys and PAS with diastase, iron, reticulin artisan and oxidised orcein for the livers. Livers were immunohistochemically stained, immunohistochemical evaluation on 3 μm thick sections was done using the CK7 antibody from Dako/Agilent, GA619 (clone OV-TL12/30) following the manufacturer's instructions. The staining took place on the Omnis from Agilent utilizing the EnVision Flex+ detection kit (GV800). The primary antibody was diluted using Antibody Diluent (Dako DM830) and were incubated for 20 minutes. The sections were counterstained with hematoxylin.

[6] = target: T1, uPAR; experiment: SPR inhibition of uPAR wt binding to immobilized pro-uPA; conditions: inhibition of uPAR binding to immobilized pro-uPA S356A, 20° C.
Procedure: Covalent immobilization of purified human prouPA^S356A—was accomplished by injecting 12.5 μg/ml protein dissolved in 10 mM sodium acetate (pH 5.0) over a CM5 chip that had been pre-activated with NHS/EDC (N-ethyl-N′[3-[…])propyl]-carbodiimide), aiming at a surface density of >5000 resonance units (RU) corresponding to 100 fmols/mm^2. After coupling the sensorchip was deactivated with 1 M ethanolamine. Binding of purified human uPAR as analyte was measured from 4 nM to 0.25 nM at 20° C. using 10 mM HEPES, 150 mM NaCl, 3 mM EDTA (pH 7.4) containing 0.05% (v/v) surfactant P20 as running buffer at a flow rate of 50 μl/min. […]
Surface plasmon resonance (SPR) was applied to determine the IC50-value of IRDye800-AE344 on the uPAR·uPA interaction in solution using a Biacore 3000 instrument essentially as described. […] A standard curve was measured in parallel (2-fold dilution of uPAR covering 0.06 nM to 2 nM) including one repeated concentration point at the end to validate the biological integrity of the sensor chip. […] The parent nonamer peptide antagonist AE105 (Asp-Cha-Phe-D-Ser-D-Arg-Tyr-Leu-Trp-Ser-OH) was analyzed in parallel as positive control and the closed uPAR^H47C-N259C was used as negative control as its uPA binding cavity cannot accommodate AE105.
Target sequence in this assay (Q03405 23-305 limits assumed): as the sequence (Q03405 23-305) above

In the case of CC(C)C[C@H](NC(=O)[C@H](Cc1ccc(O)cc1)NC(=O)[C@@H](CCCNC(=N)N)NC(=O)[C@@H](CO)NC(=O)[C@H](Cc1ccccc1)NC(=O)[C@H](CC1CCCCC1)NC(=O)[C@H](CC(=O)O)NC(=O)COCCOCCNC(=O)COCCOCCNC(=O)[C@H](CCC(=O)O)NC(=O)[C@H](CCC(=O)O)NC(=O)CCCCC[N+]1=C(/C=C/C2=C(Oc3ccc(S(=O)(=O)O)cc3)C(=C/C=C3/N(CCCCS(=O)(=O)[O-])c4ccc(S(=O)(=O)O)cc4C3(C)C)/CCC2)C(C)(C)c2cc(S(=O)(=O)O)ccc21)C(=O)N[C@@H](Cc1c[nH]c2ccccc12)C(=O)N[C@@H](CO)C(=O)O [IRDye800CW-AE344, IRDye800CW-Glu-Glu-O2Oc-O2Oc-Asp-Cha-Phe-D-Ser-D-Arg-Tyr-Leu-Trp-Ser-OH], the preserved fluorescence intensity ([1]; after continuous laser exposure for 1 h) is reported as 84%, the preserved fluorescence intensity ([1]; after continuous laser exposure for 2 h) is reported as 62% and the “normalized TBR (ref: active probe)” value ([2]; blocked with AE120) is reported as 0.70. The “tumor-to-background ratio (TBR)” value ([2]; blocked with AE120) was 4.6, the “normalized TBR (ref: active probe)” value ([2]; probe alone) was 1.00 and the “tumor-to-background ratio (TBR)” value ([2]; probe alone) was 6.6. The “signal intensity compared to the active probe” value ([2]; competitive blocking with AE120) was “lower signal intensity”, the “background MFI” value ([3]; 6 nmol, 1 h) was 24 a.u and the “background MFI” value ([3]; 6 nmol, 3 h) was 11 a.u. For the same molecule, the “decrease in background MFI” value ([3]; 6 nmol, from 1 h to 3 h) was 54%, the “visualization of orthotopic GBM through intact brain on NIR imaging” value ([3]; in vivo cancer imaging) was “clearly visualized” and the “outcome of fluorescence-guided surgery” value [4] was “complete tumor resection”. For the same molecule, the “pathological assessment of the kidneys and the liver” value [5] was “no pathological findings”.
EE-O2Oc-O2Oc-DChaFsrYLWS-NH2 [AE347] showed an IC50 [6] of 5.7 ± 0.5 nM.
In the case of “IRDye800CW-Glu-Glu-NH—CH2—CH2—O—CH2—CH2—O—CH2—CO—NH—CH2—CH2—O—CH2—CH2—O—CH2—CO-Asp-Cha-Glu-(D)Ser-(D)Arg-Tyr-Leu-Glu-Ser-OH ({IRDye800CW′}-EE[AEEA][AEEA]D[Cha]E[dS][dR]YLES-OH) [IRDye800CW-AE354, reference compound]”, the “normalized TBR values (FIG. 16C)” value ([2]; probe alone) is reported as 3.4 and the “signal intensity compared to the active probe” value ([2]; probe alone) is reported as “lower signal intensity”.
